Measurements published in article PMC8667043, “First-in-Class Inhibitors of the Ribosomal Oxygenase MINA53” (Journal of Medicinal Chemistry, 2021).

Columns and labels:
[1] = test system: HeLa cervical carcinoma; test: MTT cell viability assay; type: cell-based; conditions: 72, 96, 120 h
Procedure: (§1) Human commercially available established cancer cell lines HT-29 colon carcinoma (ATCC, HTB-38), U-87MG glioblastoma (ATCC, HTB-14), and MNK-45 gastric cancer (a gift from Dr. M. Broggini, Mario Negri Institute) were cultured in RPMI medium (Euroclone, Milan, IT) supplemented with 10% inactivated fetal bovine serum (HyClone, Thermo Scientific, South Logan, UT), 1% L-glutamine (Euroclone), and 100 μg/mL penicillin/streptomycin (Euroclone). HEK293T and HeLa cells were cultured in Dulbecco’s Modified Eagle Medium (DMEM, Gibco) supplemented with 10% (v/v) fetal bovine serum (FBS, Sigma) and 100 international units/mL (IU/mL) penicillin and 100 μg/mL streptomycin (Gibco). The cells were routinely tested for mycoplasma contamination and STR-authenticated.
(§2) Twenty-four hours following seeding, exponentially growing cells were treated with the different compounds at concentrations ranging from 10 to 100 μM for 72–120 h. Aqueous DMSO (0.5%, v/v) was used as a control (untreated). Cell viability was determined by the 3-(4,5-dimethylthiazol-2-yl)-2,5-diphenyltetrazolium bromide (MTT) colorimetric assay (Sigma-Aldrich). In summary, exponentially growing cancer cells were seeded in sextuplicate in 96-well culture plates (1.5 × 10^3 cells/well). After 24 h, the compounds were added at concentrations ranging from 10 to 100 μM. The effect of compounds on cancer cell proliferation was assessed by measuring the MTT dye absorbance of the cells as reported.[52] […] The effect of different compounds or combinations (drug concentration ratio 1:20, doxorubicin: compound) on U-87MG cancer cell viability was assessed by measuring the MTT dye absorbance of cells. The interaction between doxorubicin (Doxo) and different compounds was evaluated based on the combination index (CI) using the CI equation through CalcuSyn software (Biosoft, Cambridge, U.K.). […]
(§3) Figure S17. Antiproliferative effects of M INA53 inhibitors on HeLa (A) and HEK293T (B) cells as determined by the MTT method after exposure for 72, 96, and 120 h to the negative control 1, and the MINA53 inhibitors 9 and 10. […]

[2] = test system: U-87MG cells; test: MTT cell viability, alone or in combination with doxorubicin; combination index; type: cell-based, human; conditions: for combination index value with doxorubicin: less than 1 synergistic, higher than 1 antagonist; for cell viability reduction in cotreatment with doxorubicin: 1 μM doxorubicin + 20 μM compound; for cell viability reduction in cotreatment with doxorubicin / cell viability, single compound treatment / sensitization of U-87MG cells to doxorubicin: 24 h
Procedure: (§4) Twenty-four hours following seeding, exponentially growing cells were treated with the different compounds at concentrations ranging from 10 to 100 μM for 72–120 h. Aqueous DMSO (0.5%, v/v) was used as a control (untreated). Cell viability was determined by the 3-(4,5-dimethylthiazol-2-yl)-2,5-diphenyltetrazolium bromide (MTT) colorimetric assay (Sigma-Aldrich). In summary, exponentially growing cancer cells were seeded in sextuplicate in 96-well culture plates (1.5 × 10^3 cells/well). After 24 h, the compounds were added at concentrations ranging from 10 to 100 μM. The effect of compounds on cancer cell proliferation was assessed by measuring the MTT dye absorbance of the cells as reported.[52] For combination treatments, the cells were treated with each of three compounds, either alone or in combination with doxorubicin. In particular, U-87MG cells were treated with doxorubicin alone or in combination with different MINA53 inhibitors for 24 h. The effect of different compounds or combinations (drug concentration ratio 1:20, doxorubicin: compound) on U-87MG cancer cell viability was assessed by measuring the MTT dye absorbance of cells. The interaction between doxorubicin (Doxo) and different compounds was evaluated based on the combination index (CI) using the CI equation through CalcuSyn software (Biosoft, Cambridge, U.K.). Synergism CI < 0.9, additivity 0.9 < CI < 1.1, antagonism CI > 1.1.

[3] = test system: U-87MG malignant glioma; test: MTT cell viability assay; type: cell-based, human; conditions: 72, 96, 120 h, 10 to 100 μM, 10′ to a similar extent as 10
Procedure: as §1, §4

[4] = test system: HT-29 colon carcinoma; test: MTT cell viability assay; type: cell-based, human; conditions: 72, 96, 120 h, 10 to 100 μM, 10′ to a similar extent as 10
Procedure: as §1, §4

[5] = test system: MNK-45 gastric carcinoma; test: MTT cell viability assay; type: cell-based, human; conditions: 72, 96, 120 h, 10 to 100 μM, 10′ to a similar extent as 10
Procedure: as §1, §4

[6] = test system: U-87MG cells; test: Flow cytometric analysis of cell cycle distribution and Sub-G1 peak (PI staining); type: cell-based, human; conditions: 24 h; for accumulation of cells in the G2/M phase of the cell cycle / percentage of apoptotic cells (Sub-G1), compound alone: 10 μM; for percentage of apoptotic cells (Sub-G1), with doxorubicin: 10 μM compound + doxorubicin 0.5 μM
Procedure: Cell cycle distribution and apoptosis were assayed by staining floating and adherent cells with propidium iodide ([…] RNase A and 20 μg/mL propidium iodide) for 45 min. Flow cytometric analyses were performed using Epics XL apparatus (Beckman Coulter). Ten thousand events were collected from each sample, and data were processed using Flowing software.

[7] = target: T1, HA-tagged MINA53 (Homo sapiens, UniProt Q8IUF8); test: Substrate trapping by anti-HA immunoprecipitation (RPL27A); type: cell-based; conditions: HEK293T, HeLa, U-87MG cells; 100 μM, 18 h
T1 construct: expressed in transfected cells; host or cells: HEK293T, HeLa, U-87MG (transient, pEF6 vector)
Procedure: Proteins were transferred onto nitrocellulose or PVDF membranes and incubated with rabbit γ-H2AX (#9718, Cell Signaling Technologies, MA) anti-GAPDH (Sc47724, Santa Cruz Biotechnology, Santa Cruz, CA), rabbit anti-RPL27A (Abcam, ab74731), goat anti-RPL8 (Abcam, ab63941), horseradish peroxidase (HRP)-conjugated anti-HA (Roche, 12013819001), and HRP-conjugated anti-β-actin (Abcam, ab-49900).
For immunoprecipitation, the cells were harvested on ice and lysed by rotation for 1 h at 4 °C in JIES buffer. The cell debris was subsequently pelleted by centrifugation (10 min at 21 910g at 4 °C), and the supernatant was incubated overnight at 4 °C with Pierce anti-HA agarose beads (Thermo Scientific, 26181). The next day, the beads were washed 6 times with JIES buffer before the immunoprecipitates were eluted for 15 min at 1400 rpm at room temperature using 1 mg/mL HA peptide (Thermo Scientific, 26184) dissolved in JIES buffer. The eluted samples were then prepared in 1× Laemmli loading buffer (6x: 125 mM Tris-HCl [pH 6.8], 6% (w/v) SDS, 50% (v/v) glycerol, 225 mM dithiothreitol (DTT), and 0.1% (w/v) bromophenol blue) and boiled for 5 min for detection by western blot.
Plasmid DNA transfections were performed using a FuGENE 6 transfection reagent (Promega, E2691). Briefly, a transfection mix of DNA and transfection reagent at a ratio of 1:3 was made up in Opti-MEM (Gibco, 31985070) and incubated for 30 min at room temperature before the complexes were added to the cells. A total of 500 ng of DNA was used per mL of culturing medium. The cells were seeded 24 h prior to transfection, and cell treatments were performed 24 h post-transfection.
Figure S18. MINA53 substrate trapping with inhibitors 9 and 10 in cells. HEK293T (A), HeL a (B) and U-87MG (C) cel ls transiently expressing an empty (EV), wild- type (WT) or catalytically […]
control for 18 h prior toanti -HAimmunoprecipitation (IP). Anti -HA IPs were immunoblotted for RPL27A (17 kDa) and HA. β -Actin was used as loading control. […]

[8] = test system: HEK293T; test: MTT cell viability assay; type: cell-based, human; conditions: 72, 96, 120 h
Procedure: as §1, §2, §3

T1 sequence (Q8IUF8 whole entry): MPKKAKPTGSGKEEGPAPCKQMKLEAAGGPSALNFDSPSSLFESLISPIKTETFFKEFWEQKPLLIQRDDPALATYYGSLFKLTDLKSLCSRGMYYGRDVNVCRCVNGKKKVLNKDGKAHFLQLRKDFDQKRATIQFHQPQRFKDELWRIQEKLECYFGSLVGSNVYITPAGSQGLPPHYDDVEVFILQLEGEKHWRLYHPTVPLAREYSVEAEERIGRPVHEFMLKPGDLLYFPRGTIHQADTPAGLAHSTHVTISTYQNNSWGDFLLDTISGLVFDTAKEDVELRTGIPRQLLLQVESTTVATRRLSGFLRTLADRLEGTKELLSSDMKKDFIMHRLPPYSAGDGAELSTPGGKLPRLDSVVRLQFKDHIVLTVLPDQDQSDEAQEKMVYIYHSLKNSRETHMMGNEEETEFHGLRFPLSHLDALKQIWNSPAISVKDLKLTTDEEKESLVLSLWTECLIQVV

## O=C(O)c1c[nH]c(=S)[nH]c1=O [compound 1]
[1]
  effect on cell viability, HeLa: no effect
[2]
  combination index value with doxorubicin: higher than 1
[3]
  effect on cell viability, U-87MG: no effect
[4]
  effect on cell viability, HT-29: no effect
[5]
  effect on cell viability, MNK-45: no effect
[6]
  accumulation of cells in the G2/M phase of the cell cycle: not
[7]
  binding (trapping) of endogenous RPL27A substrate to HA-tagged MINA53: not
[8]
  effect on cell viability, HEK293T: no effect

## O=C(O)c1cnc(SCCc2ccccc2)[nH]c1=O [compound 9, 2-(Phenethylthio)-3,4-dihydro-4-oxopyrimidine-5-carboxylic Acid]
[1]
  effect on cell viability, HeLa: sensitive
[2]
  cell viability reduction in cotreatment with doxorubicin: around 75%
  cell viability, single compound treatment: reduced cell viability in a dose-dependent manner
  sensitization of U-87MG cells to doxorubicin: dose-dependent sensitization
  combination index value with doxorubicin: less than 1
[3]
  effect on cell viability, U-87MG: sensitive
[4]
  effect on cell viability, HT-29: only a marginal effect
[5]
  effect on cell viability, MNK-45: sensitive
[6]
  percentage of apoptotic cells (Sub-G1), with doxorubicin: about 60%
  accumulation of cells in the G2/M phase of the cell cycle: induced accumulation of cells in the G2/M phase
  percentage of apoptotic cells (Sub-G1), compound alone: about 30%
[7]
  binding (trapping) of endogenous RPL27A substrate to HA-tagged MINA53: increased binding
[8]
  effect on cell viability, HEK293T: sensitivity

## O=C(O)c1cnc(SCCCc2ccccc2)[nH]c1=O [compound 10, 2-((3-Phenylpropyl)thio)-3,4-dihydro-4-oxopyrimidine-5-carboxylic Acid]
[1]
  effect on cell viability, HeLa: sensitive
[2]
  cell viability reduction in cotreatment with doxorubicin: around 75%
  cell viability, single compound treatment: reduced cell viability in a dose-dependent manner
  sensitization of U-87MG cells to doxorubicin: dose-dependent sensitization
  combination index value with doxorubicin: less than 1
[3]
  effect on cell viability, U-87MG: sensitive
[4]
  effect on cell viability, HT-29: only a marginal effect
[5]
  effect on cell viability, MNK-45: sensitive
[6]
  percentage of apoptotic cells (Sub-G1), with doxorubicin: about 60%
  accumulation of cells in the G2/M phase of the cell cycle: induced accumulation of cells in the G2/M phase
  percentage of apoptotic cells (Sub-G1), compound alone: about 30%
[7]
  binding (trapping) of endogenous RPL27A substrate to HA-tagged MINA53: increased binding
[8]
  effect on cell viability, HEK293T: sensitivity
